# How the values were obtained:
# serum cholesterol = experiment: Serum total, HDL and non-HDL cholesterol, hamsters dosed 28 days; assay type: in vivo, golden Syrian hamster; details: hamster
# Description: Male golden Syrian hamsters (126-147 gm) were obtained from Charles Rivers Laboratories and were single housed in a constant temperature environment with alternating 12-hour light and dark cycles. Hamsters were fed Teklad 7001 rodent meal chow at libitum for two weeks before the experimental studies began and switched to Teklad 7001 rodent meal chow supplemented with 0.24% cholesterol on day one of the 28-day experiment. Water was continuously available to the animals. Hamsters were assigned to groups in a manner that normalized each group by pretreatment body weights. SD-5613 was dissolved in an aqueous solution of 0.2% (w/v) Tween 80 and administered Q.D. by intragastric gavage between 9 a.m. and 10 a.m. each morning using a syringe fitted with a flexible feeding tube. Blood samples were collected after 14- and 28-day treatment periods by orbital sinus and cardiac puncture, respectively. Hamsters were anesthetized but not fasted prior to blood collections. Fecal samples were collected during a 48-hour period at the end of days 14 and 28 (i.e. days 13-14 and 27-28). Hamsters were sacrificed using carbon dioxide asphyxiation to obtain the following tissue samples: liver, kidneys, colon and cecum.
# Blood was collected at 14 and 28 days from non-fasted hamsters and put into serum separator tubes. The blood cells were separated from the serum by centrifugation at 2000×g for 20 minutes and the serum decanted. Total cholesterol was measured using a Cobas Mira Classic clinical chemistry analyzer (Roche Diagnostic Systems, Indianapolis, Ind.). This analyzer used the cholesterol oxidase reaction to produce hydrogen peroxide which was measured colorimetrically. The cholesterol reagent (Roche Diagnostic Systems) was reconstituted according to package insert. The reagent was calibrated using Roche Calibrator Serum. Commercial bi-level quality control material was analyzed to verify calibration and reagent performance (QC1, QC2-Bio-Rad Laboratories, Irvine, Calif.). The cholesterol content of each sample was measured at 500 nm and 37° C. in a calibrated analyzer by mixing 3 μl of sample with 150 μl cholesterol reagent and 40 μl water.
# The Unimate HDL Direct Cholesterol assay (DHDL, Roche Diagnostics) was based on the […] of synthetic polymers and polyanions to the surface of lipoproteins. The combined action of polymers, polyanions and detergent solubilizes cholesterol from HDL, but transforms LDL, VLDL, and chylomicrons into detergent-resistant forms. Solubilized cholesterol was oxidized by the sequential enzymatic action of cholesterol esterase and cholesterol oxidase. The H2O2 produced in this reaction was reacted with chromogens to form a colored dye. The increase in absorbance at 550 nm was directly proportional to the HDL cholesterol concentration of the sample. The test was performed using a Cobas Mira Classic clinical chemistry analyzer (Roche Diagnostic Systems). The DHDL reagent (Roche Diagnostic Systems) was reconstituted according to the package insert. The reagent was calibrated using Roche HDL Direct Calibrator. Commercial bi-level quality control material was analyzed to verify calibration and reagent performance (Liquichek Lipids Control, Level 1 & 2, Bio-Rad Laboratories, Irvine, Calif.). A 2.4 μl aliquot of serum was analyzed in the presence of 240 μl of Reagent 1, 80 μl of Reagent 2 and 5 μl of water at 37° C. and 550 nm wavelength. Triglycerides were hydrolyzed by lipoprotein lipase to glycerol and fatty acids. Glycerol was then phosphorylated to glycerol-3-phosphate by adenosine 5-triphosphate (ATP) in a reaction catalyzed by glycerol kinase (GK). The oxidation of glycerol-3-phosphate was catalyzed by glycerolphosphate oxidase (GPO) to form dihydroxyacetone phosphate and hydrogen peroxide. The hydrogen peroxide reacted with 4-cholorophenol and 4-aminophenazone in the presence of peroxidase to form a quinoneimine complex, which was read at 490-550 nm. […]
# serum bile acids = experiment: Fasting and post-prandial peak serum bile acids in children and adolescents after eight days of LUM001; assay type: in vivo, human; details: LUM001 treated patients
# Method: The efficacy of LUM001 was determined by measuring total serum bile acids after eight days of dosing in children and adolescents under the age of eighteen. Thirty minutes before the next drug administration, at approximately 8 am in the morning, serum bile acid levels were measured. The child had refrained from food for 12 hours prior to this sample thus providing a fasted level of serum bile acid. After breakfast, serum bile acids were measured for up to the next 4 hours (8 am to noon) and the peak serum bile acid concentration noted.
# [1] = Open-label single-dose [14C]LUM001 oral solution study: radioactivity in plasma, whole blood, urine, feces; assay type: in vivo, human; details: for Radioactive Concentration, Plasma / Radioactive Concentration, Whole Blood: 5 mg [14C]LUM001 oral solution
# Method: This was an open-label, one-period, single-dose study of a [^14C]LUM001 oral solution. Eight healthy male subjects received an oral solution of 5 mg [^14C]LUM001 (containing approximately […] per dose). Blood samples were collected at predose and for 72 hours postdose, urine samples were collected predose and for 168 hours postdose and feces were collected predose and for 216 hours postdose. Plasma, whole blood, urine and fecal samples were analyzed for total radioactivity, and selected fecal samples were analyzed for LUM001 and relevant metabolite concentrations. In addition, metabolic profiles in selected fecal samples were obtained using high performance liquid radio chromatography (HPLRC).
smiles,measurement,setting,value
CCCCC1(CCCC)CS(=O)(=O)c2ccc(N(C)C)cc2[C@@H](c2ccc(OCc3ccc(C[N+]45CCN(CC4)CC5)cc3)cc2)[C@H]1O [LUM001],HDL-cholesterol,serum cholesterol; 5 mg/kg/day,127 ± 10 mg/dL
same,"HDL-cholesterol, % change from vehicle group",serum cholesterol; 5 mg/kg/day,(−22) %
same,Non-HDL-cholesterol,serum cholesterol; 5 mg/kg/day,99 ± 9 mg/dL
same,"Non-HDL-cholesterol, % change from vehicle group",serum cholesterol; 5 mg/kg/day,(−37) %
same,Serum Total Cholesterol,serum cholesterol; 5 mg/kg/day,225 ± 16 mg/dL
same,"Serum Total Cholesterol, % change from vehicle group",serum cholesterol; 5 mg/kg/day,(−29) %
same,HDL-cholesterol,serum cholesterol; 15 mg/kg/day,115 ± 7 mg/dL
same,"HDL-cholesterol, % change from vehicle group",serum cholesterol; 15 mg/kg/day,(−29) %
same,Non-HDL-cholesterol,serum cholesterol; 15 mg/kg/day,86 ± 8 mg/dL
same,"Non-HDL-cholesterol, % change from vehicle group",serum cholesterol; 15 mg/kg/day,(−45) %
same,Serum Total Cholesterol,serum cholesterol; 15 mg/kg/day,201 ± 14 mg/dL
same,"Serum Total Cholesterol, % change from vehicle group",serum cholesterol; 15 mg/kg/day,(−37) %
same,HDL-cholesterol,serum cholesterol; 50 mg/kg/day,102 ± 4 mg/dL
same,"HDL-cholesterol, % change from vehicle group",serum cholesterol; 50 mg/kg/day,(−37) %
same,Non-HDL-cholesterol,serum cholesterol; 50 mg/kg/day,76 ± 4 mg/dL
same,"Non-HDL-cholesterol, % change from vehicle group",serum cholesterol; 50 mg/kg/day,(−52) %
same,Serum Total Cholesterol,serum cholesterol; 50 mg/kg/day,178 ± 6 mg/dL
same,"Serum Total Cholesterol, % change from vehicle group",serum cholesterol; 50 mg/kg/day,(−44) %
same,decrease in fasting serum bile acid level vs placebo,serum bile acids,24%
same,decrease in post-prandial peak serum bile acid level vs placebo,serum bile acids,23%
same,"Radioactive Concentration, Plasma",[1]; 0.5 hr,BLQ
same,"Radioactive Concentration, Plasma",[1]; 1 hr,BLQ
same,"Radioactive Concentration, Whole Blood",[1]; 1 hr,0.000 ng equivalents/g
same,"Radioactive Concentration, Plasma",[1]; 1.5 hr,BLQ
same,"Radioactive Concentration, Plasma",[1]; 2 hr,BLQ
same,"Radioactive Concentration, Plasma",[1]; 2.5 hr,BLQ
same,"Radioactive Concentration, Plasma",[1]; 3 hr,BLQ
same,"Radioactive Concentration, Plasma",[1]; 4 hr,BLQ
same,"Radioactive Concentration, Whole Blood",[1]; 4 hr,0.000 ng equivalents/g
same,"Radioactive Concentration, Plasma",[1]; 6 hr,BLQ
same,"Radioactive Concentration, Plasma",[1]; 8 hr,BLQ
same,"Radioactive Concentration, Plasma",[1]; 12 hr,BLQ
same,"Radioactive Concentration, Plasma",[1]; 16 hr,0.000 ng equivalents/mL
same,"Radioactive Concentration, Plasma",[1]; 24 hr,BLQ
same,"Radioactive Concentration, Plasma",[1]; 36 hr,0.000 ng equivalents/mL
same,"Radioactive Concentration, Plasma",[1]; 48 hr,BLQ
same,"Radioactive Concentration, Plasma",[1]; 60 hr,BLQ
same,"Radioactive Concentration, Plasma",[1]; 72 hr,BLQ
same,"Radioactive Concentration, Whole Blood",[1]; −0.5 hr,0.000 ng equivalents/g
same,Percent of Dose,"[1]; analyte in feces, mean",65.0 ± 3.1%
same,"Cumulative % of Total Dose, Total (Urine and Feces)",[1]; radioactivity,72.532%
same,"Cumulative % of Total Dose, Urine","[1]; radioactivity, 0-2 hr",0.005%
same,"Cumulative % of Total Dose, Feces","[1]; radioactivity, 0-24 hr",30.376%
same,"Cumulative % of Total Dose, Urine","[1]; radioactivity, 2-4 hr",0.012%
same,"Cumulative % of Total Dose, Urine","[1]; radioactivity, 4-8 hr",0.028%
same,"Cumulative % of Total Dose, Urine","[1]; radioactivity, 8-12 hr",0.041%
same,"Cumulative % of Total Dose, Urine","[1]; radioactivity, 12-24 hr",0.058%
same,"Cumulative % of Total Dose, Feces","[1]; radioactivity, 24-48 hr",49.878%
same,"Cumulative % of Total Dose, Urine","[1]; radioactivity, 24-48 hr",0.057%
same,"Cumulative % of Total Dose, Feces","[1]; radioactivity, 48-72 hr",67.630%
same,"Cumulative % of Total Dose, Urine","[1]; radioactivity, 48-72 hr",0.062%
same,"Cumulative % of Total Dose, Feces","[1]; radioactivity, 72-96 hr",69.653%
same,"Cumulative % of Total Dose, Urine","[1]; radioactivity, 72-96 hr",0.063%
same,"Cumulative % of Total Dose, Feces","[1]; radioactivity, 96-120 hr",71.606%
same,"Cumulative % of Total Dose, Urine","[1]; radioactivity, 96-120 hr",0.063%
same,"Cumulative % of Total Dose, Feces","[1]; radioactivity, 120-144 hr",71.771%
same,"Cumulative % of Total Dose, Urine","[1]; radioactivity, 120-144 hr",0.064%
same,"Cumulative % of Total Dose, Feces","[1]; radioactivity, 144-168 hr",71.815%
same,"Cumulative % of Total Dose, Urine","[1]; radioactivity, 144-168 hr",0.066%
same,"Cumulative % of Total Dose, Feces","[1]; radioactivity, 168-192 hr",71.885%
same,"Cumulative % of Total Dose, Feces","[1]; radioactivity, 192-216 hr",71.885%
same,"Cumulative % of Total Dose, Feces","[1]; radioactivity, incl. Toilet Paper (cumulative recovery from first five fecal samples)",72.466%
